What follows are compounds tested against T1, Human TRPC6 (Homo sapiens, UniProt Q9Y210) (assay: Evaluation of TRPC6 channel inhibitory activity (1), FLIPR Calcium 5 Assay Kit, OAG stimulation (Compound Nos. 1-1293)). Conditions: not given.
T1 construct: expressed in transfected cells
T1 sequence (Q9Y210 1-931): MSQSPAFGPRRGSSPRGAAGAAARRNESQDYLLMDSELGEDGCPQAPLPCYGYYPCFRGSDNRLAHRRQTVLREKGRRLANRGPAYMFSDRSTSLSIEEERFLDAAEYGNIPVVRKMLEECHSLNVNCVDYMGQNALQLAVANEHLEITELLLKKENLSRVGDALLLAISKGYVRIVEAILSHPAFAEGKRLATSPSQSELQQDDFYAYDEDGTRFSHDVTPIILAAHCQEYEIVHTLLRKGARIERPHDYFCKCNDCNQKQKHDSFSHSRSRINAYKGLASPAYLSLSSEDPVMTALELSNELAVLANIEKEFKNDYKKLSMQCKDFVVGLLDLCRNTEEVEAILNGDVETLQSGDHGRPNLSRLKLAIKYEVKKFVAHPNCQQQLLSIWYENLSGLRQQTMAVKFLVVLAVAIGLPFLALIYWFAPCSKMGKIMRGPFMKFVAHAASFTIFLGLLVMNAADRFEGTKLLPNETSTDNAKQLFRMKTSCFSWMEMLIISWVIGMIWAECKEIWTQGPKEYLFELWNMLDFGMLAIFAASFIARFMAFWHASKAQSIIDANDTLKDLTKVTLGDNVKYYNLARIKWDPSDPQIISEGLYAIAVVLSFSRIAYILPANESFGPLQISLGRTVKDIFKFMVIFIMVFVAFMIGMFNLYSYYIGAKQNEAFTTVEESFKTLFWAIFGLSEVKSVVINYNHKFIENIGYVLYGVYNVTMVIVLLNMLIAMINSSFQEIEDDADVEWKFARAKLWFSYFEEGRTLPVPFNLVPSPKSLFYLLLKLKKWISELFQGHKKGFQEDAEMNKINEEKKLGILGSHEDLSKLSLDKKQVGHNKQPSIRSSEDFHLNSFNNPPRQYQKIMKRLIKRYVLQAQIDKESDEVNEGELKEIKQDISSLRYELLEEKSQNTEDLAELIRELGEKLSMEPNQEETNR
Type: cell-based
How it was run: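 The FLIPR signal is maximum fluorescence after 30 μM OAG minus minimum before compound, measured in a human TRPC6 stable line loaded with Calcium 5 dye. Compounds were preincubated 20 min. pIC50 came from four-parameter logistic fitting of inhibition rates and is given as symbol ranges.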

SMILES | IC50 [µM]
Cc1nc(Oc2cc(C#N)ccc2-c2ncc(CCN)cn2)cc(N2C3CCC2CC3)n1 [compound 671, 4-[5-(2-aminoethyl)pyrimidin-2-yl]-3-[6-(7-azabicyclo[2.2.1]heptan-7-yl)-2-methylpyrimidin-4-yl]oxybenzonitrile] | < 0.01

Same assay, conditions: Human TRPC6 stably-expressing cells, OAG 30 μM, FLIPR Calcium 5 Assay Kit; read-out: Inhibitory activity (pIC50 class) (converted)

SMILES | IC50 [µM]
Cc1nc(Oc2cc(C#N)ccc2-c2ncc(CCN)cn2)cc(N(C)CC2CC2)n1 [compound 861, 4-[5-(2-aminoethyl)pyrimidin-2-yl]-3-[6-[cyclopropylmethyl(methyl)amino]-2-methylpyrimidin-4-yl]oxybenzonitrile] | < 0.01
N#Cc1ccc(-n2cc(C(O)CN)cn2)c(Oc2cc(N3CCOCC3)nc(C(F)(F)F)n2)c1 (stereo not shown) [Compound 155, 4-[4-(2-amino-1-hydroxyethyl)pyrazol-1-yl]-3-[6-morpholin-4-yl-2-(trifluoromethyl)pyrimidin-4-yl]oxybenzonitrile] | 0.01 to 1
N#Cc1ccc(-c2ccc(CCN)nc2)c(Cn2cnc(-c3ccccc3)c2)c1 [compound 1132, 4-[6-(2-aminoethyl)pyridin-3-yl]-3-[(4-phenylimidazol-1-yl)methyl]benzonitrile] | 0.01 to 1
CC(C)Cn1cc(Oc2cc(F)ccc2-c2ncc(CCN)cn2)cn1 [compound 982, 2-[2-[4-fluoro-2-[1-(2-methylpropyl)pyrazol-4-yl]oxyphenyl]pyrimidin-5-yl]ethanamine] | 0.01 to 1
Cn1nc(-c2ccccc2)cc1Oc1cc(C#N)ccc1-c1ncc2c(n1)CCNC2 [Compound 292, 3-(2-methyl-5-phenylpyrazol-3-yl)oxy-4-(5,6,7,8-tetrahydropyrido[4,3-d]pyrimidin-2-yl)benzonitrile] | 0.01 to 1
N#Cc1ccc(-c2ncc(CN)cn2)c(Cn2cc(C3CCCCC3)nn2)c1 [compound 1190, 4-[5-(aminomethyl)pyrimidin-2-yl]-3-[(4-cyclohexyltriazol-1-yl)methyl]benzonitrile] | 0.01 to 1
CN(C)c1cc(Oc2cc(C#N)ccc2-c2ncc([C@H](F)CN)cn2)n(C)n1 [compound 905, 4-[5-[(1S)-2-amino-1-fluoroethyl]pyrimidin-2-yl]-3-[5-(dimethylamino)-2-methylpyrazol-3-yl]oxybenzonitrile] | < 0.01
CCN(CC)c1cc(Oc2cc(C#N)ccc2-c2ncc([C@H](F)CN)cn2)n(C)n1 [compound 913, 4-[5-[(1S)-2-amino-1-fluoroethyl]pyrimidin-2-yl]-3-[5-(diethylamino)-2-methylpyrazol-3-yl]oxybenzonitrile] | < 0.01
Cc1cc(C(=O)c2cc(C#N)ccc2-c2ncc(CN)cn2)cc(N2CCOCC2)n1 [compound 1049, 4-[5-(aminomethyl)pyrimidin-2-yl]-3-(2-methyl-6-morpholin-4-ylpyridine-4-carbonyl)benzonitrile] | < 0.01
N#Cc1ccc(-c2ccc(CCN)cc2)c(Sc2cnnc(N3CCCCC3)c2)c1 [Compound No. 1240, 4-[4-(2-Aminoethyl)phenyl]-3-(6-piperidin-1-ylpyridazin-4-yl)sulfanylbenzonitrile] | < 0.01
Cc1nc(Oc2cc(C#N)ccc2-c2ncc(CN)cn2)cc(N2CCC[C@H]2C#N)n1 [compound 675, (2S)-1-[6-[2-[5-(aminomethyl)pyrimidin-2-yl]-5-cyanophenoxy]-2-methylpyrimidin-4-yl]pyrrolidine-2-carbonitrile] | 0.01 to 1
N#Cc1ccc(-c2ccc([C@@H](O)CN)cn2)c(Cn2cnc(-c3ccccc3)c2)c1 [compound 1138, 4-[5-[(1R)-2-amino-1-hydroxyethyl]pyridin-2-yl]-3-[(4-phenylimidazol-1-yl)methyl]benzonitrile] | 0.01 to 1
CCc1cc(Oc2cc(C#N)ccc2-c2ccc(OCCN)cn2)n(C)n1 [compound 345, 4-[5-(2-aminoethoxy)pyridin-2-yl]-3-(5-ethyl-2-methylpyrazol-3-yl)oxybenzonitrile] | 0.01 to 1
CN(CC(F)(F)F)c1cc(Oc2cc(C#N)ccc2-c2ncc(CCN)cn2)n(C)n1 [compound 787, 4-[5-(2-aminoethyl)pyrimidin-2-yl]-3-[2-methyl-5-[methyl(2,2,2-trifluoroethyl)amino]pyrazol-3-yl]oxybenzonitrile] | < 0.01
Cc1nc(-c2cc(Oc3cc(C#N)ccc3-c3ncc(CN)cn3)n(C)n2)cs1 [compound 957, 4-[5-(aminomethyl)pyrimidin-2-yl]-3-[2-methyl-5-(2-methyl-1,3-thiazol-4-yl)pyrazol-3-yl]oxybenzonitrile] | < 0.01
Cc1nc(Oc2cc(C#N)ccc2-c2ncc(CN)cn2)cc(OC2CCC2)n1 [compound 788, 4-[5-(aminomethyl)pyrimidin-2-yl]-3-(6-cyclobutyloxy-2-methylpyrimidin-4-yl)oxybenzonitrile] | > 1
Cc1cc(Oc2cc(C#N)ccc2-c2cnc(CN)cn2)cc(N2CCOCC2)n1 [compound 332, 4-[5-(aminomethyl)pyrazin-2-yl]-3-(2-methyl-6-morpholin-4-ylpyridin-4-yl)oxybenzonitrile] | 0.01 to 1
N#Cc1ccc(-c2ncc(CN)cn2)c(C(=O)c2cnc(N3CCOCC3)o2)c1 [compound 1082, 4-[5-(aminomethyl)pyrimidin-2-yl]-3-(2-morpholin-4-yl-1,3-oxazole-5-carbonyl)benzonitrile] | > 1
CC(C)COCc1cncn1Cc1cc(C#N)ccc1-c1ccc(CCN)cc1 [compound 1117, 4-[4-(2-aminoethyl)phenyl]-3-[[5-(2-methylpropoxymethyl)imidazol-1-yl]methyl]benzonitrile] | 0.01 to 1
Cc1nc(-c2ccccn2)cn1Cc1cc(C#N)ccc1-c1ccc(CCN)cn1 [compound 1157, 4-[5-(2-aminoethyl)pyridin-2-yl]-3-[(2-methyl-4-pyridin-2-ylimidazol-1-yl)methyl]benzonitrile] | 0.01 to 1
Cc1cc(Oc2cc(C#N)ccc2-c2ncc(CCN)cn2)cc(-c2ncccn2)n1 [compound 686, 4-[5-(2-aminoethyl)pyrimidin-2-yl]-3-(2-methyl-6-pyrimidin-2-ylpyridin-4-yl)oxybenzonitrile] | > 1
N#Cc1ccc(-c2ccc(CCN)cc2)c(Oc2cnnc(-c3ccccc3C(N)=O)c2)c1 [Compound 94, 2-[5-[2-[4-(2-aminoethyl)phenyl]-5-cyanophenoxy]pyridazin-3-yl]benzamide] | > 1
Cc1cc(Oc2cc(C#N)ccc2-c2ccc(CCN)cn2)cc(N2CCN(C)C(=O)C2)n1 [compound 464, 4-[5-(2-aminoethyl)pyridin-2-yl]-3-[2-methyl-6-(4-methyl-3-oxopiperazin-1-yl)pyridin-4-yl]oxybenzonitrile] | > 1
Cc1c(Oc2cc(C#N)ccc2-c2ncc(CN)cn2)cnn1CC(F)(F)F [compound 837, 4-[5-(aminomethyl)pyrimidin-2-yl]-3-[5-methyl-1-(2,2,2-trifluoroethyl)pyrazol-4-yl]oxybenzonitrile] | 0.01 to 1
Cn1nc(C2CC2)cc1Oc1cc(C#N)ccc1-c1cc(OCCN)ccn1 [compound 556, 4-[4-(2-aminoethoxy)pyridin-2-yl]-3-(5-cyclopropyl-2-methylpyrazol-3-yl)oxybenzonitrile] | 0.01 to 1
N#Cc1ccc(-c2ncc(CCN)cn2)c(Cn2cc(-c3ccccc3)nn2)c1 [compound 1167, 4-[5-(2-aminoethyl)pyrimidin-2-yl]-3-[(4-phenyltriazol-1-yl)methyl]benzonitrile] | < 0.01
COC(c1cc(C#N)ccc1-c1ncc(CCN)cn1)c1cc(C(C)(C)C)nn1C (stereo not shown) [compound 1236, 4-[5-(2-aminoethyl)pyrimidin-2-yl]-3-[(5-tert-butyl-2-methylpyrazol-3-yl)-methoxymethyl]benzonitrile] | 0.01 to 1
Cn1nc(C2CCC2)cc1Oc1cc(C#N)ccc1-c1ccc(C(F)(F)CN)cn1 [Compound 294, 4-[5-(2-amino-1,1-difluoroethyl)pyridin-2-yl]-3-(5-cyclobutyl-2-methylpyrazol-3-yl)oxybenzonitrile] | < 0.01
Cn1nc2c(c1Oc1cc(C#N)ccc1-c1ncc(CN)cn1)CCC2 [compound 678, 4-[5-(aminomethyl)pyrimidin-2-yl]-3-[(2-methyl-5,6-dihydro-4H-cyclopenta[c]pyrazol-3-yl)oxy]benzonitrile] | > 1
Cn1cc(C(=O)c2cc(F)ccc2-c2ncc(CCN)cn2)cn1 [compound 1100, [2-[5-(2-aminoethyl)pyrimidin-2-yl]-5-fluorophenyl]-(1-methylpyrazol-4-yl)methanone] | > 1

Source: patent US20230167073A1 (Teijin Pharma Limited, priority 2020, published 2023)
